≈ marks a conversion by molar mass, not a printed value. Where “and” joins values, the source holds several entries; their conditions need not be identical. Equal values may be shown once. Numbered stars: 1 amine (or outer) side, 2 acyl side, 3 side chain; on linkers, the order of the positions; unused ones are H or OH. Bridge positions count the residues as written; N and C are the ends. Square brackets hold non-standard residues; d marks the D form. Peptide text beside a SMILES is read from it. I, II: the chains in the order shown. Actinocin(9to1) = Cc1c2oc3c(C)ccc(C(=O)[*:1])c3nc-2c(C(=O)[*:2])c(N)c1=O; NMeV = CN[C@H](C(=O)O)C(C)C; Sar = CNCC(=O)O
What was measured:
[1] = isolated from Anacardium occidentale; cited from earlier work
[2] = tested on: Propionibacterium acnes (ATCC 11827); assay: Antibacterial activity, broth microdilution MIC (INT colour change); type: cell-based; conditions: P. acnes, 72 h anaerobic, 37°C; for MIC: Cutibacterium acnes, ATCC11827, 72 h
Description: The ethanol extract and compounds were tested against P. acnes by determining the minimum inhibitory concentration (MIC) values obtained by a microdilution method as previously described with few modifications. Briefly, the bacteria was cultured from a Kwik-Stick on nutrient agar and incubated at 37°C for 72 h under anaerobic conditions before the assay. The 72 h culture of the bacteria was dissolved in nutrient broth and the suspension was adjusted to 0.5 McFarland standard turbidity. […] In a sterile 96-well plate, 100 μl of samples from the stock solution consisting of the plant extract/isolated compounds (2 mg/ml in 10% dimethyl sulphoxide (DMSO)) and the positive control tetracycline (0.2 mg/ml) were diluted with broth. Twofold serial dilutions were made in broth over a range to give concentrations of 500–3.9 μg/ml and 50–0.3 and μg/ml for the plant extract/ isolated compounds and positive control tetracycline, respectively. The bacterial suspension (100 μl) was then added to the wells. The wells with 2.5% DMSO and bacterial suspension without samples served as the solvent and negative controls, respectively. The plates were incubated at 37°C for 72 h in an anaerobic environment.

[3] = DPPH antioxidant assay; type: biochemical; conditions: for Antioxidant IC50 / IC50: DPPH; for Antioxidant IC50: 550 nm; for IC50: value in brackets; for Antioxidant Mg Vit C equivalents/g dry weight: IC50 vit C/IC50 sample × 1000
Description: Antioxidant activity of the ethanol extract of S. jambos and compounds was investigated using 1,2-diphenyl-1-picrylhydrazyl (DPPH) antioxidant assay. Following the procedures as described by DuToit et al. for each sample, a dilution series (8 dilutions) was prepared in a 96 well plate by adding distilled water as a dilution medium. Final concentration of the samples ranged from 100 to 0.7 μg/ml. Each concentration was tested in triplicate. Vitamin C was used as a positive control. […] The radical scavenging activity was measured in terms of the amount of antioxidants necessary to decrease the initial DPPH absorbance by 50% (IC50). The IC50 value of each sample was determined graphically by plotting the absorbance of DPPH as a function of the sample concentration in μg/ml. The IC50 is the amount of antioxidant necessary to decrease the initial DPPH absorbance by 50%. The results are expressed as the mg vitamin C equivalents/g dry weight and calculated as follows: […]

[4] = In vitro cytotoxicity assay (XTT), B16-F10; conditions: mouse
Description: (§1) The mouse melanocytes (B16-F10) cells were cultured in a complete Minimum Essential Eagle’s Medium (MEM) whereas the human U937 cells were cultured in Roswell Park Memorial Institute (RPMI) containing 10% fetal bovine serum (FBS) and 1% gentamycin. B16-F10 (10^5 cells per well) and U937 (10^6 cells per well) were seeded into a 96-well plate. After an overnight incubation at 37°C in 5% CO2 and a humidified atmosphere, the extract, compounds and the positive control (actinomycin D) were added to the cells. […] The highest concentration of positive control (0.05 μg/ml) was serially diluted to eight consecutive wells. The plate was then incubated at 37°C in 5% CO2, and a humidified atmosphere after which the toxic effects of the extracts were assayed using the XTT (sodium 3’-[1-(phenyl amino-carbonyl)-3,4-tetrazolium]-bis-[4-methoxy-6-nitrobenzene sulfonic acid hydrate) cytotoxicity assay. […] The optical densities of the wells were measured at 450 nm (690 nm reference wavelength) using BIOTEK Power-wave XS multi well reader (A.D.P., Weltevreden Park, South Africa). By referring to the control (medium with DMSO), the cell survival rate was assessed.

[5] = In vitro cytotoxicity assay (XTT), U937; conditions: human
Description: as §1

[6] = tested on: TNF α; assay: TNF α release from U937 cells stimulated with heat-killed P. acnes (ELISA); type: cell-based, human; conditions: for Inhibitory ratio (%) TNF α: 18 h
Description: (§2) Briefly, the log phase culture of P. acnes was harvested, washed three times with phosphate buffer saline (PBS), and incubated at 80°C for 30 min to kill the bacteria. The heat-killed bacteria were stored at 4°C until use. […] Pentoxifylline was used as a control. […] Cytokine standards were serially diluted to facilitate the construction of calibration curves necessary for determining protein concentration after treatment with test samples. The ratio (%) of inhibition of the cytokine release was calculated using the following equation: […] Where T represents the concentration of the cytokine in the culture supernatant with the test sample, and C represents the concentration of cytokine in the culture supernatant with the solvent.

[7] = tested on: B16-F10 mouse melanocytes; assay: In vitro cytotoxicity assay (XTT), B16-F10; conditions: B16-F10 cells
Description: as §1

[8] = tested on: U937 human macrophage; assay: In vitro cytotoxicity assay (XTT), U937; conditions: U937 cells
Description: as §1

[9] = tested on: IL 8; assay: IL 8 release from U937 cells stimulated with heat-killed P. acnes (ELISA); type: cell-based, human; conditions: for Inhibition of IL 8 in words: at the highest concentration tested; for Inhibitory ratio (%) IL 8: 18 h
Description: as §2

[10] = tested on: vancomycin-resistant enterococci; parameters: method as in PMID 17541170; conditions: cited from earlier work
[11] = at the highest concentration tested

For 6-pentadecenylsalicylic acid, the “DPPH radical scavenging activity in words” value [1] is given as “did not exhibit notable DPPH radical scavenging activity”.
For O=C(O)c1cc(O)c(O)c(O)c1 [Gallic acid, gallic acid], the MIC [2] was over 500 µg/mL, the “Antibacterial MIC” value [2] was “Na (not active at the highest concentration tested (500 μg/ml))” and the “Antioxidant IC50” value [3] was 0.8 µg/mL. The IC50 [3] was 4.8 µM, the “Antioxidant Mg Vit C equivalents/g dry weight” value [3] was 2444.9 Mg Vit C equivalents/g dry weight and the EC50 [4] was 2.2 µg/mL and 13.1 µM. The EC50 [5] was 28.4 µg/mL and 169 µM and the “Inhibition of TNF α in words” value [6, 11] was “suppressed TNF α drastically”.
With O=c1c(O)c(-c2cc(O)c(O)c(O)c2)oc2cc(O)cc(O)c12 [Myricetin, myricetin] the MIC [2] was over 500 µg/mL, the “Antibacterial MIC” value [2] was “Na (not active at the highest concentration tested (500 μg/ml))” and the “Antioxidant IC50” value [3] was 0.9 µg/mL. The IC50 [3] was 3 µM, the “Antioxidant Mg Vit C equivalents/g dry weight” value [3] was 2105.0 Mg Vit C equivalents/g dry weight and the EC50 ([4]; B16-F10 mouse melanocyte cells) was 11.1 µg/mL and 35.1 µM. For the same compound, the Toxicity in words [7] was “significant toxicity”, the EC50 ([5]; U937 human macrophage cells) was 19.3 µg/mL and 60 µM and the Toxicity in words [8] was “moderate toxicity”. For the same compound, the “Inhibition of IL 8 in words” value [9] was “low inhibition”, the “Inhibitory ratio (%) IL 8” value ([9]; final concentration 3.1 μg/ml) was -0.5% and the “Inhibitory ratio (%) IL 8” value ([9]; final concentration 6.2 μg/ml) was 10%. The “Inhibitory ratio (%) IL 8” value ([9]; final concentration 12.5 μg/ml) was 34%, the “Inhibition of TNF α in words” value [6, 11] was “moderately decreased” and the “Inhibitory ratio (%) TNF α” value ([6]; final concentration 3.1 μg/ml) was -4.8%. For the same compound, the “Inhibitory ratio (%) TNF α” value ([6]; final concentration 6.2 μg/ml) was 27.1% and the “Inhibitory ratio (%) TNF α” value ([6]; final concentration 12.5 μg/ml) was 44.1%.
For CC(=O)CCCCn1c(=O)c2c(ncn2C)n(C)c1=O [Pentoxifylline, reference compound], the “Inhibitory ratio (%) IL 8” value ([9]; final concentration 10 μg/ml) was -0.16%, the “Inhibitory ratio (%) IL 8” value ([9]; final concentration 50 μg/ml) was -5.0% and the “Inhibitory ratio (%) IL 8” value ([9]; final concentration 100 μg/ml) was -1.3%. The “Change in IL 8 concentration in words” value ([9]; pentoxifylline control) was “no significant change”, the “Inhibition of TNF α in words” value ([6]; at 100 and 50 μg/ml) was “Very high inhibition” and the “Inhibitory ratio (%) TNF α” value ([6]; final concentration 10 μg/ml) was 66.8%. For the same compound, the “Inhibitory ratio (%) TNF α” value ([6]; final concentration 50 μg/ml) was 99.7% and the “Inhibitory ratio (%) TNF α” value ([6]; final concentration 100 μg/ml) was 99.7%.
For CC(C)=CCC/C(C)=C/CC/C(C)=C/CC/C=C(\C)CC/C=C(\C)CCC=C(C)C [Squalene, squalene], the MIC [2] was over 500 µg/mL, the “Antibacterial MIC” value [2] was “Na (not active at the highest concentration tested (500 μg/ml))” and the “Antioxidant IC50” value [3] was over 100 µg/mL. It also gave a viability at 100 μg/ml ([4]; B16-F10 melanocyte cells) of 100%, an EC50 ([4]; B16-F10 mouse melanocyte cells) of over 100 µg/mL and an EC50 [5] of over 100 µg/mL. It also gave a viability at 100 μg/ml [5] of 100%.
In the case of C[C@H]1[C@H](C)CC[C@]2(C(=O)O)CC[C@]3(C)C(=CC[C@@H]4[C@@]5(C)CC[C@H](O)C(C)(C)[C@@H]5CC[C@]43C)[C@H]12 [Ursolic acid, ursolic acid], the MIC [2] is reported as over 500 µg/mL, the “Antibacterial MIC” value [2] is reported as “Na (not active at the highest concentration tested (500 μg/ml))” and the EC50 ([5]; U937 human macrophage cells) is reported as 38 µg/mL and 83.2 µM. For the same compound, the Toxicity in words [8] was “moderately toxic”, the “Suppression of IL 8 release (range stated jointly for IL 8 and TNF α)” value ([9]; abstract summary) was 74 - 99% and the “Inhibition of IL 8 in words” value [9] was “significant inhibition”. The “Suppression of TNF α release (range stated jointly for IL 8 and TNF α)” value ([6]; abstract summary) was 74 - 99%, the “Inhibition of TNF α in words” value [6, 11] was “significant inhibition” and the MIC [10] was 4 µg/mL (≈ 8.76 µM).
Cc1c2oc3c(C)ccc(C(=O)N[C@@H]4C(=O)N[C@H](C(C)C)C(=O)N5CCC[C@H]5C(=O)N(C)CC(=O)N(C)[C@@H](C(C)C)C(=O)O[C@@H]4C)c3nc-2c(C(=O)N[C@@H]2C(=O)N[C@H](C(C)C)C(=O)N3CCC[C@H]3C(=O)N(C)CC(=O)N(C)[C@@H](C(C)C)C(=O)O[C@@H]2C)c(N)c1=O [actinomycin D, reference compound] (I: T[dV]P[Sar][NMeV] / II: T[dV]P[Sar][NMeV]; ester I:1-I:C, II:1-II:C; linker I:N-II:N via Actinocin(9to1)) showed an EC50 [4] of 0.0045 µg/mL (≈ 0.00358 µM) and an EC50 [5] of 0.0045 µg/mL (≈ 0.00358 µM).
